The results in this text go back to US5672710A, “Sulfides, sulfoxides and sulfones disubstituted with a tetrahydronaphthalenyl, chromanyl, thiochromanyl or tetrahydroquinolinyl and substituted phenyl or heteroaryl group, having retinoid-like biological activity” (priority 1995, dated 1997).

Test [1] addresses T1, RXRα (Homo sapiens, UniProt P19793).
T1 construct: expressed in transfected cells; host or cells: CV1
T1 sequence (P19793 1-462): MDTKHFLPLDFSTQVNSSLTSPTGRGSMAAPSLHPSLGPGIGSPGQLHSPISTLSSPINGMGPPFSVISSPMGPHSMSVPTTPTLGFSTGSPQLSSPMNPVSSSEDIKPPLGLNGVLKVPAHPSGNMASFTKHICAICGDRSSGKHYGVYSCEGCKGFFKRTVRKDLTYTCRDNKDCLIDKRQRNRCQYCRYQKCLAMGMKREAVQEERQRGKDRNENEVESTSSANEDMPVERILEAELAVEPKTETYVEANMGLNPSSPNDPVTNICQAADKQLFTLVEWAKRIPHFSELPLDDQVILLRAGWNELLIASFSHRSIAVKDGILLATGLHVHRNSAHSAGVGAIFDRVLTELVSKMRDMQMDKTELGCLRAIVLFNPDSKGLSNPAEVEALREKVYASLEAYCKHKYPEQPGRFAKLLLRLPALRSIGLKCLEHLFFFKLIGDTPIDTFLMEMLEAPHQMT
Nature of the test: Ligand binding assay, RXRα. The text has this:
(§1) A holoreceptor transactivation assay and a ligand binding assay which measure the ability of the compounds of the invention to bind to the several retinoid receptor subtypes, respectively, are described in published PCT Application No. WO W093/11755 (particularly on pages 30-33 and 37-41) published on Jun. 24, 1993, the specification of which is also incorporated herein by reference. A description of the holoreceptor transactivation assay is also provided below.
(§2) CV1 cells (5,000 cells/well) were transfected with an RAR reporter plasmid MTV-TREp-LUC (50 ng) along with one of the […] expression vectors (10 ng) in an automated 96-well format by the calcium phosphate procedure of Heyman et al. Cell 68, 397-406. (8). For RXRα and RXR.GAMMA. transactivation assays, an RXR-responsive reporter plasmid CRBPII-tk-LUC (50 ng) along with the appropriate RXRexpression vectors (10 ng) was used substantially as described by Heyman et al. above, and Allegretto et al. J. Biol. Chem. 268, 26625-26633. For RXRβ transactivation assays, an RXR-responsive reporter plasmid CPRE-tk-LUC ([…]) along with RXRβ expression vector ([…]) was used as described in above. These reporters contain DRI elements from human CRBPII and certain DRI elements from promoter, respectively. (see Mangelsdorf et al. The Retinoids: Biology, Chemistry and Medicine, pp 319-349, Raven Press Ltd., New York and Heyman et al., cited above) (1, 8). A β-galactosidase (50 ng) expression vector was used as an internal control in the transfections to normalize for variations in transfection efficiency. The cells were transfected in triplicate for 6 hours, followed by incubation with retinoids for 36 hours, and the extracts were assayed for luciferase and β-galactosidase activities. The detailed experimental procedure for holoreceptor transactivations has been described in Heyman et al. above, and Allegretto et al. cited above. The results obtained in this assay in connection with examplary compounds in accordance with the present invention are expressed in EC50 numbers, as they are also in the chimeric receptor transactivation assay. The Heyman et al. Cell 68, 397-406, Allegretto et al. J. Biol. Chem. 268, 26625-26633, and Mangelsdorf et al. The Retinoids: Biology, Chemistry and Medicine, pp 319-349, Raven Press Ltd., New York, are expressly incorporated herein by reference. The results of ligand binding assay are expressed in Kd numbers. (See Cheng et al. Biochemical Pharmacology Vol. 22 pp 3099-3108, expressly incorporated herein by reference.)

For test [2], the target named is T1, RXRα. In words: Holoreceptor transactivation assay, RXRα. It is filed as cell-based. As to conditions: CV1 cells; for EC50: 36 hours; for Emax: CV-1, relative to all trans retinoic acid, read-out: Transactivation Assay Efficacy (% of RA activity), RXRα.
Excerpt: as §1, §2

Test [3] has as its target T2, RARβ (Homo sapiens, UniProt P10826).
T2 construct: expressed in transfected cells; host or cells: CV1
T2 sequence (P10826 1-448 isoform P10826-2): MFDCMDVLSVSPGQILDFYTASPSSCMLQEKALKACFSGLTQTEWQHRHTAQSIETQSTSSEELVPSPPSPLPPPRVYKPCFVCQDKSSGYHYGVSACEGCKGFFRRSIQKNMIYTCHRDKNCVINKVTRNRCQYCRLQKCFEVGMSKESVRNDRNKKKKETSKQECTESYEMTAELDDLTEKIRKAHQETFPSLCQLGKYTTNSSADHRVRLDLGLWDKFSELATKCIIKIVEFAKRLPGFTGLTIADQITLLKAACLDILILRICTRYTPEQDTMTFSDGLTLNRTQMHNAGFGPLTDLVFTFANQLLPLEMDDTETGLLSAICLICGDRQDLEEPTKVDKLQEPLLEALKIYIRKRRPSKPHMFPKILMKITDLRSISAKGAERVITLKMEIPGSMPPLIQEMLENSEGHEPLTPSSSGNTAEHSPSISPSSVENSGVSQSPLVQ
In words: Ligand binding assay, RARβ.
Excerpt: as §1, §2

The target of a further test is T3, RARγ (Homo sapiens, UniProt P13631).
T3 construct: expressed in transfected cells; host or cells: CV1
T3 sequence (P13631 1-454): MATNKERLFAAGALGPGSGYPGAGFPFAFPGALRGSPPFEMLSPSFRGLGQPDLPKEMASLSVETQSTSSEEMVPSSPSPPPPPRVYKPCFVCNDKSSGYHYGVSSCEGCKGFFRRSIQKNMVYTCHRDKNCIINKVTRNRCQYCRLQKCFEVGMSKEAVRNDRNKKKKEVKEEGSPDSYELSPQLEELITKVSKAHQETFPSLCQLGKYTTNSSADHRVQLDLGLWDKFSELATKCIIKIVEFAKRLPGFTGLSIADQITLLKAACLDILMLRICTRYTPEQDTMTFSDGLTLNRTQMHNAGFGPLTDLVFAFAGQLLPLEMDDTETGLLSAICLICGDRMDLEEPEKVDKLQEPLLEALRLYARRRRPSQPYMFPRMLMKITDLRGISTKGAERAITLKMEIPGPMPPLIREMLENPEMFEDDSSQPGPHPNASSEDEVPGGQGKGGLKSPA
In words: Ligand binding assay, RARγ.
Excerpt: as §1, §2

For test [4], the target named is T2, RARβ. Nature of the test: Holoreceptor transactivation assay, RARβ. It is filed as cell-based. The following applies: CV-1; CV1 cells; relative to all trans retinoic acid; read-out: Transactivation Assay Efficacy (% of RA activity), RARβ.
Excerpt: as §1, §2

Where only a bound is given, the exact number is not on record here.

Take `CC1(C)CCC(C)(C)c2cc(S(=O)(=O)c3ccc(C(=O)O)cc3)ccc21` [Compound 5, 4-(5,6,7,8-tetrahydro-5,5,8,8-tetramethyl-2-naphthylsulfonyl)benzoic acid]: the equilibrium dissociation constant (Kd) at RXRα [1], on RARβ [3] and at RARγ was above 1 µM in each case. Further, the half-maximal effective concentration (EC50) on RXRα [2] is 3 µM. Moreover, the Emax at RXRα [2] turned out to be 32%; on RARβ [4], 4%.

Turning to `Cc1cc2c(cc1Sc1ccc(C(=O)O)cn1)C(C)(C)CCC2(C)C` [Compound 13], the Kd at RXRα [1] is 0.032 µM; on RARβ [3], above 10 µM; at RARγ it was above 10 µM. Moreover, the response at RXRα [2] was half-maximal at 0.054 µM (EC50). In addition, the Emax stood at 91% on RXRα [2] and 4% at RARβ [4].

Regarding `Cc1cc2c(cc1Sc1ncc(C(=O)O)s1)C(C)(C)CCC2(C)C` [Compound 15, 2-(5,6,7,8-Tetrahydro-3,5,5,8,8-pentamethyl-2-naphthylthio)-5-thiazolecarboxylic acid], the Kd on RXRα [1], on RARβ [3] and on RARγ was above 1 µM throughout. This compound also had an EC50 at RXRα [2] of 2.3 µM. Besides, the Emax stood at 85% at RXRα [2] and 0% at RARβ [4].

Turning to `Cc1cc2c(cc1S(=O)(=O)c1ccc(C(=O)O)cc1)C(C)(C)CCC2(C)C` [Compound 11, 4-(5,6,7,8-tetrahydro-3,5,5,8,8-pentamethyl-2-naphthylsulfonyl)benzoic acid], the dissociation constant Kd at RXRα [1], on RARβ [3] and at RARγ was above 1 µM in each case. For the same compound, at RXRα [2], the EC50 came out at 2.8 µM. For the same compound, the Emax is 55% on RXRα [2] and 6% at RARβ [4].

For `Cc1cc2c(cc1Sc1ccc(C(=O)O)cc1)C(C)(C)CCC2(C)C` [Compound 7, 4-(5,6,7,8-tetrahydro-3,5,5,8,8-pentamethyl-2-Daphthylthio)benzoic acid], the Kd was 0.296 µM on RXRα [1], above 1 µM at RARβ [3] and above 1 µM on RARγ. This compound showed an EC50 on RXRα [2] of 0.28 µM. In addition, the Emax on RXRα [2] amounted to 81%; on RARβ [4], 4%.

Regarding `Cc1cc2c(cc1[S+]([O-])c1ccc(C(=O)O)cc1)C(C)(C)CCC2(C)C` (stereo not shown) [Compound 9, 4-(5,6,7,8-tetrahydro-3,5,5,8,8-pentamethyl-2-naphthylsulfoxy)benzoic acid], the Kd on RXRα [1], on RARβ [3] and at RARγ was above 1 µM throughout. Besides, the figures for the Emax at RXRα [2] and at RARβ [4] were 17% and 4%, respectively.

Consider `CC1(C)CCC(C)(C)c2cc(Sc3ccc(C(=O)O)cc3)ccc21` [Compound 2], for which the equilibrium dissociation constant (Kd) on RXRα [1], at RARβ [3] and on RARγ was above 1 µM throughout. In addition, the Emax on RXRα [2] is 51%; on RARβ [4], 66%.

The term Kd denotes the equilibrium constant for the complex coming apart. High values mean a looser complex, low ones a tighter complex. As a reminder, the EC50 is the concentration giving half of the maximal effect. A lower EC50 goes with a more potent agent.
